Test results taken from US10925854B2, “Methods and compositions for preventing or treating fatty liver, protecting liver function or ameliorating liver diseases caused by fatty liver or other associated disorders” (SINEW PHARMA INC., priority 2015, dated 2021).
Read-outs that look alike come from different tables or passages of the source.

Tests used:
[1] = test system: HepG2 fatty liver cells (induced with oleic acid); test: Reduction of TG content in oleic acid-induced HepG2 fatty liver cells; format: cell-based, human; details: for inhibition at 1 µM: Homo sapiens, read-out: TG reduction rate
Procedure: The activity of the various compounds of the present invention in reduction of fat content was analyzed by using human hepatoma cell line Hep G2.
HepG2 cell lines (15×10^6 cells) were cultured in DMEM culture No. B, incubated in an incubator with 5% CO2 at 37° C. for 24 hours, cultured in DMEM culture No. C (serum-free medium) for 24 hours, and finally cultured in DMEM culture No. D (containing oleate/albumin complex) for another 48 hours to induce HepG2 cell lines to form fatty liver cells.
HepG2 cell lines were divided into six groups, including: (1) Blank: no treatment; (2) DMSO group: cells from Blank were treated with dimethyl sulfoxide (DMSO); (3) Control: induction with oleic acid to form fatty liver cells; (4) Vehicle group: fatty liver cells formed by induction with oleic acid were treated with DMSO; (5) Positive control: fatty liver cells were treated with silymarin; and (6) Test Group: fatty liver cells were treated with various compounds of the present invention.
After incubation for 72 hours, the treated cells from each group were successively washed twice with PBS, and then incubated with 0.5 ml of trypsin/EDTA for 3 minutes. Afterwards, the cells were scraped with 2 ml of PBS and then transferred to the centrifuge tube to be shattered by ultrasonic. 20 μl of the cell extracts was taken to determine the content of protein. TG determination was performed using commercially available combination of agents (Randox). The TG content obtained above was divided by the protein content to obtain a ratio, representing a relative TG content in the cells.
The equation for calculating reduction rate (%) of TG was as follows: [1−(TG content of Test Group−TG content of Blank)/(TG content of Oleic acid induction Group−TG content of Blank)]×100%.

[2] = test system: B6 mice fed with high fat feed (fatty liver); test: Serum ALT and AST (liver dysfunction) in mice with induced fatty liver; format: in vivo
Procedure: (§1) B6 mice recommended in the specification “Method for evaluating the liver protection and health care efficacies of health food” announced by the Department of Health were chosen for animal testing. More than four (4) mice were used in each group of the pre-test, while more than twelve (12) mice were used in each group of the confirmatory test. Male mice bred at 23±2° C. in an animal room with 55±15% relative humidity under normal light/dark cycle (7:00 AM-7:00 PM lights on/7:00 PM-7:00 AM lights off) and weighing 18-23 g were purchased from BioLASCO (Taipei) and housed at Laboratory Animal Center in National Defense Medical Center. The animal test was carried out according to the guideline for animal experiment of National Health Research Institutes. Mice were fed with normal feed at 3-5 g/day and unlimited supply of water for 1-2 weeks and investigated for health condition. The weight of mice was recorded once a week.
(§2) The tested animals were grouped randomly into Blank, High Fat Diet control (HFD), Positive Control (PS), and Test group. The animals of Blank were fed with normal feed. The animals of HFD were fed with high fat feed. The animals of PS were fed with high fat feed, and additionally fed with silymarin (5 mg/kg/day) by a tube. The animals of Test group were fed with high fat feed, and additionally force-fed with test compounds by a tube.
(§3) The animals of Blank were fed casually with normal feed for 12 weeks, while the animals of HFD, PS, and Test group were fed casually with high fat feed for 12 weeks. After 8 weeks of feeding, the animals of Blank and HFD were fed with deionized water by a tube once a day; the animals of PS were fed with silymarin by a tube once a day; and the animals of Test Group were fed with test compounds by a tube once a day for a duration of 4 or 8 weeks.
Before testing and in the eighth (8th), twelfth (12th), and sixteenth (16th) week after testing, blood was collected from the cheek or the heart. At the end of testing, all mice were weighted and then sacrificed, and blood was collected from the cheek or the heart simultaneously. The blood specimens of mice was placed at room temperature for one hour to clot, and then the serum was separated by centrifugation in a refrigeration centrifuge at 15,700×g at 4° C. for 5 minutes. Afterwards, biochemical indices of liver function, including aspartate transaminase (AST), alanine aminotransferase (ALT), triglyceride (TG), total cholesterol (TCHO/TC), low-density lipoprotein cholesterol (LDL-C), and high-density lipoprotein cholesterol (HDL-C), were detected by the automatic blood biochemistry analyzer.

[3] = test system: B6 mice fed with high fat feed (fatty liver); test: Liver antioxidant capacity (Gpx, GSH, Grd, SOD) in mice with induced fatty liver; format: in vivo; details: fatty liver mice
Procedure: as §1, §2, §3
About 0.1 g of liver tissue was taken from the sacrificed animal and homogenized by centrifuge with a biomasher for 10 minutes. A 9-fold weight (w/w) of buffer (pH 7.4, 50 mmol/L Tris-HCl, 180 mmol/L KCl) was added to the homogenized tissue, which was then mixed well by a Vortex mixer for subsequent use. The resulting homogenization solution samples of liver tissue was used for the analysis of various members of liver antioxidant systems, including glutathione peroxidase (GPx), glutathione (GSH), glutathione reductase (Grd), and superoxide dismutase (SOD). Methods of related analysis can be found in the known literatures, for example, the draft of “Method for evaluating the liver protection and health care efficacies of health food” announced by the Ministry of Health and Welfare, Taiwan.

[4] = test system: B6 mice fed with high fat feed (fatty liver); test: Liver lipids (TG, TC in liver) in mice with induced fatty liver; format: in vivo
Procedure: as §1, §2, §3
In addition, abdominal fat and liver specimens were taken from the abdomens of sacrificed mice and weighted to compare the weight of fat and liver and obtain a ratio of liver weight to body weight. Two tissue blocks with a volume of approximately 1 cm^3 were cut from the largest right lobe of liver, fixed in 10% neutral formalin solution, and then embedded with paraffin for sectioning and H&E staining for histopathological observation. Moreover, the rest of the liver was frozen for preservation and detection of the contents of triglyceride and total cholesterol in the liver. Furthermore, the liver function of animals of each group were analyzed by Galactose Single Point Method, which was recognized and recommended for quantification of remaining liver function in clinical use by U.S. FDA and Ministry of Health and Welfare, Taiwan. At the end of the tests, 0.5 g of galactose (G.S.P.® 0.4 g/mL) per kg of animal was administered via intravenous. One hour after the administration, about 0.5 ml of whole blood was taken by using a filter paper to evaluate liver function of mice. The higher the value of GSP was, the worse the remaining liver function would be (FDA: “Guidance for Industry: Pharmacokinetics in Patients with Impaired. Hepatic Function—Study Design, Data Analysis and Impact on Dosing and. Labeling. 2003).

[5] = 72 h, tested substances 1.0 uM, fatty liver cells from HepG2

Row | Compound | inhibition at 1 µM [1, 5] [%] | other results
1 | O=C(O)CC(O)(CC(=O)O)C(=O)O [citric acid] | 2.55 ± 4.43 | –
2 | O=c1cc(-c2ccccc2)oc2cc(O)c(O)c(O)c12 [baicalein] | 7.09 ± 10.9 | –
3 | O=c1c(O)c(-c2ccc(O)cc2O)oc2cc(O)cc(O)c12 [morin] | 25.8 ± 10.7 | –
4 | O=C1c2c(O)cc(O)cc2O[C@H](c2ccc(O)c(O)c2)[C@H]1O [(+)-taxifolin] | 17.9 ± 8.35 | –
5 | COc1ccc([C@@H]2CC(=O)c3c(O)cc(O)cc3O2)cc1O [hesperitin] | 16.1 ± 5.55 | effect on ALT and AST values (in words) [2]: can significantly reduce ALT and AST values; effect on liver antioxidant activity (in words) [3]: can significantly enhance antioxidant activity; effect on TC in liver (in words) [4]: reduces TC in liver significantly; effect on TG in liver (in words) [4]: reduces TG in liver significantly
6 | O=c1ccc2ccc(O)cc2o1 [umbelliferone] | 17.4 ± 2.57 | –
7 | COc1ccc([C@@H]2CC(=O)c3c(O)cc(O[C@@H]4O[C@H](CO)[C@@H](O)[C@H](O)[C@H]4O[C@@H]4O[C@@H](C)[C@H](O)[C@@H](O)[C@H]4O)cc3O2)cc1 [poncirin] | 38.1 ± 7.22 | –
8 | COc1ccc(-c2cc(=O)c3c(OC)c(OC)c(OC)cc3o2)cc1OC [sinensetin] | 37 ± 4.84 | –
9 | COc1ccc(-c2cc(=O)c3c(O)cc(O[C@@H]4O[C@H](CO[C@@H]5O[C@@H](C)[C@H](O)[C@@H](O)[C@H]5O)[C@@H](O)[C@H](O)[C@H]4O)cc3o2)cc1O [diosmin] | 11.9 ± 3.73 | –
10 | CC(Cc1ccc(O)c(O)c1)C(C)Cc1ccc(O)c(O)c1 (stereo not drawn) [nordihydroguaiaretic acid] | 15.9 ± 2.3 | –
11 | O=c1cc(-c2ccc(O)c(O)c2)oc2cc(O)cc(O)c12 [luteolin] | 6.95 ± 15.2 | –
12 | COc1cc(C2Oc3cc([C@H]4Oc5cc(O)cc(O)c5C(=O)[C@@H]4O)ccc3OC2CO)ccc1O (stereo partly drawn) [silybin] | 30.3 ± 3.24 | –
13 | CC(C)[C@@H](C)/C=C/[C@@H](C)[C@H]1CC[C@H]2C3=CC=C4C[C@@H](O)CC[C@]4(C)[C@H]3CC[C@]12C [ergosterol] | 34.2 ± 3.69 | –
14 | (−)-epicatechin-3-gallate | – | TG reduction rate ([1]; tested substances 1.0 uM, fatty liver cells from HepG2): 32.7 ± 4.33%
15 | C=C[C@H]1[C@H](O[C@@H]2O[C@H](CO)[C@@H](O)[C@H](O)[C@H]2O)OC=C2C(=O)OCC[C@]21O [swrtiamarin, swertiamarin] | 6.72 ± 11 | –
16 | CC1(C)[C@@H](O[C@H]2O[C@H](C(=O)O)[C@@H](O)[C@H](O)[C@H]2O[C@@H]2O[C@H](C(=O)O)[C@@H](O)[C@H](O)[C@H]2O)CC[C@]2(C)[C@H]3C(=O)C=C4[C@@H]5C[C@@](C)(C(=O)O)CC[C@]5(C)CC[C@@]4(C)[C@]3(C)CC[C@@H]12 [glycyrrhizin] | 10.6 ± 7.4 | –
17 | CCCCCCCCCCCCCC(=O)OCC [myristic acid ethyl ester] | 28.9 ± 3.91 | –
18 | O=c1c(-c2ccc(O)cc2)coc2c([C@@H]3O[C@H](CO)[C@@H](O)[C@H](O)[C@H]3O)c(O)ccc12 [puerarin] | 49.9 ± 7.73 | effect on ALT and AST values (in words) [2]: can significantly reduce ALT and AST values; effect on liver antioxidant activity (in words) [3]: can significantly enhance antioxidant activity; effect on TG in liver (in words) [4]: reduces TG in liver significantly
19 | COc1ccc(-c2coc3cc(O)ccc3c2=O)cc1 [formononetin] | 29.6 ± 1.44 | –
20 | O=c1cc(-c2ccc(O)cc2)oc2cc(O)c([C@@H]3O[C@H](CO)[C@@H](O)[C@H](O)[C@H]3O)c(O)c12 [isovitexin] | 35.9 ± 3.35 | –

Row | Compound | inhibition at 1 µM [1, 5] [%] | other results
21 | O=c1c(-c2ccc(O)cc2)coc2cc(O)ccc12 [daidzein] | 42.3 ± 5.34 | –
22 | OCC(O)CO [glycerrin, glycerin] | 16.2 ± 4.25 | –
23 | C[C@@H]1O[C@@H](Oc2c(-c3ccc(O)c(O)c3)oc3cc(O)cc(O)c3c2=O)[C@H](O)[C@H](O)[C@H]1O [quercitrin] | – | inhibition at 1 µM ([1]; HepG2, 72 h): 9.15 ± 9.24%
24 | CC/C=C\C/C=C\C/C=C\C/C=C\C/C=C\CCCC(=O)O [eicosapentaenoic acid (EPA), eicosapentaenoic acid] | 26.1 ± 6.14 | –
25 | O=C(CCc1ccc(O)cc1)c1c(O)cc(O)cc1O[C@@H]1O[C@H](CO)[C@@H](O)[C@H](O)[C@H]1O [phloridzin] | 42.4 ± 6.05 | –
26 | O=C(O)/C=C/c1ccccc1 [trans-Cinnamic Acid] | 15.8 ± 0.82 | –
27 | O=c1c(O)c(-c2ccc(O)cc2)oc2cc(O)cc(O)c12 [kaempferol] | 36.5 ± 4.78 | –
28 | C[C@H]1[C@H](C)CC[C@]2(C(=O)O)CC[C@]3(C)C(=CC[C@@H]4[C@@]5(C)CC[C@H](O)C(C)(C)[C@@H]5CC[C@]43C)[C@H]12 [ursolic Acid] | 35.9 ± 8.92 | –
29 | C/C=C/C=C/C(=O)O [sorbic acid] | 2.03 ± 1.96 | –
30 | O=C(O)[C@H]1O[C@@H](Oc2cc3oc(-c4ccccc4)cc(=O)c3c(O)c2O)[C@H](O)[C@@H](O)[C@@H]1O [baicalin] | 9.21 ± 6.21 | –
31 | O=c1c(O)c(-c2ccccc2)oc2cc(O)cc(O)c12 [galangin] | 28.1 ± 8.62 | –
32 | OC[C@@H](O)[C@H](O)[C@@H](O)CO [xylitol] | 7.36 ± 6.34 | –
33 | OC[C@@H](O)[C@@H](O)[C@H](O)[C@@H](O)CO [sorbitol] | 20.1 ± 2.57 | –
34 | O=C(O)c1ccc(O)c(O)c1 [protocatechuic acid] | – | inhibition at 1 µM ([1]; HepG2, 72 h): 18.6 ± 7.6%
35 | C[C@@H]1O[C@@H](O[C@H]2[C@H](Oc3cc(O)c4c(c3)O[C@H](c3ccc(O)cc3)CC4=O)O[C@H](CO)[C@@H](O)[C@@H]2O)[C@H](O)[C@H](O)[C@H]1O [naringin] | 12.7 ± 3.72 | –
36 | CCCCCCCCCCCCOS(=O)(=O)[O-].[Na+] [sodium lauryl sulfate] | 38.7 ± 4.65 | –
37 | O=c1c(O[C@@H]2O[C@H](CO)[C@H](O)[C@H](O)[C@H]2O)c(-c2ccc(O)c(O)c2)oc2cc(O)cc(O)c12 [hyperoside] | 30.5 ± 2.8 | –
38 | O=C1NS(=O)(=O)c2ccccc21 [saccharin] | 17.5 ± 6.96 | effect on ALT and AST values (in words) [2]: can significantly reduce ALT and AST values; effect on TC in liver (in words) [4]: reduces TC in liver significantly
39 | C=CC(=C)CCC=C(C)C [β-myrcene] | 34 ± 11.2 | –
